The test system of this assay is BDF1 mice, P388 leukemia ip, median survival T/C. As to the kind of experiment: NCI In Vivo Anticancer Drug Screen. Data for tumor model P388 Leukemia (intraperitoneal) in B6D2F1 (BDF1) mice. The settings on record: endpoint: median survival time, higher = longer survival. The procedure, abridged:
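Antitumour effect was judged in vivo: survival in drug-treated mice, normalised to that of vehicle-dosed controls, gives the reported T/C.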

Setting [1] is: dose: 25.0 mg/kg/injection, schedule: Q01DX009 (ip), vehicle: Klucel (hydroxypropylcellulose) (HPC).
[2] abbreviates: dose: 50.0 mg/kg/injection, schedule: Q01DX009 (ip), vehicle: Klucel (hydroxypropylcellulose) (HPC).
Setting [3] is: dose: 100.0 mg/kg/injection, schedule: Q04DX003 (ip), vehicle: Klucel (hydroxypropylcellulose) (HPC).
Setting [4] is: dose: 100.0 mg/kg/injection, schedule: Q01DX009 (ip), vehicle: saline with Tween-80.
[5] abbreviates: dose: 200.0 mg/kg/injection, schedule: Q01DX009 (ip), vehicle: saline with Tween-80.
[6] abbreviates: dose: 6.25 mg/kg/injection, schedule: Q01DX009 (ip), vehicle: saline.
Where [7] appears, read: dose: 12.5 mg/kg/injection, schedule: Q01DX009 (ip), vehicle: saline.
Where [8] appears, read: dose: 25.0 mg/kg/injection, schedule: Q04DX003 (ip), vehicle: saline sonified.
Setting [9] is: dose: 100.0 mg/kg/injection, schedule: Q01DX009 (ip), vehicle: Klucel (hydroxypropylcellulose) (HPC).
[10] abbreviates: dose: 200.0 mg/kg/injection, schedule: Q01DX009 (ip), vehicle: Klucel (hydroxypropylcellulose) (HPC).

Each structure is given as a SMILES string. Where “and” joins values, the source holds several entries; their conditions need not be identical. Equal entries are not always repeated. Toxic doses and inconclusive results are not listed.

On to `CN1C(=O)C(C2(C3C(=O)N(C)C(=O)N(C)C3=O)C(=O)N(C)C(=O)N(C)C2=O)C(=O)N(C)C1=O`, for which the T/C reads like this: (dose: 100.0 mg/kg/injection, schedule: Q01DX001 (ip), vehicle: saline with Tween-80) 108 % of control; (dose: 200.0 mg/kg/injection, schedule: Q01DX001 (ip), vehicle: saline with Tween-80) 104 % of control; (dose: 400.0 mg/kg/injection, schedule: Q01DX001 (ip), vehicle: saline with Tween-80) 102 % of control.

With `CCC(=O)OCC1OC(n2cnc3c(=S)nc(N)[nH]c32)C(OC(=O)CC)C1OC(=O)CC` (configuration not stated), the T/C is 103 % of control (dose: 12.5 mg/kg/injection, schedule: Q04DX003 (ip), vehicle: Klucel (hydroxypropylcellulose) (HPC)); 118 % of control (dose: 16.0 mg/kg/injection, schedule: Q04DX003 (ip), vehicle: Klucel (hydroxypropylcellulose) (HPC)); 115 % of control under setting [1]; 173 % of control (dose: 25.0 mg/kg/injection, schedule: Q04DX003 (ip), vehicle: Klucel (hydroxypropylcellulose) (HPC)); 100 % of control under setting [2]; 122 % of control under setting [3].

With `CN1CCCC(CC2c3ccccc3Sc3ccccc32)C1` (configuration not stated), the T/C was 100 % of control (dose: 7.5 mg/kg/injection, schedule: Q01DX010 (ip), vehicle: saline); 100 % of control (dose: 15.0 mg/kg/injection, schedule: Q01DX010 (ip), vehicle: saline); 100 % of control (dose: 30.0 mg/kg/injection, schedule: Q01DX010 (ip), vehicle: saline); 109 % of control (dose: 60.0 mg/kg/injection, schedule: Q01DX010 (ip), vehicle: saline).

For `Nc1cc(=O)[nH][nH]1`, the T/C was 104 % of control under setting [4]; 109 % of control under setting [5]; 122 % of control (dose: 400.0 mg/kg/injection, schedule: Q01DX009 (ip), vehicle: saline with Tween-80).

As for `Nc1ncccc1C1CCCS1` (configuration not stated), the T/C is 104 % of control (dose: 50.0 mg/kg/injection, schedule: Q04DX002 (ip), vehicle: saline with Tween-80); 98 % of control (dose: 100.0 mg/kg/injection, schedule: Q04DX002 (ip), vehicle: saline with Tween-80); 91 % of control (dose: 200.0 mg/kg/injection, schedule: Q04DX002 (ip), vehicle: saline with Tween-80).

With `CCCCCCCCCCC[N+](C)(C)CC[N+](C)(C)CCCCCCCCCCC`, the T/C is, setting by setting: (dose: 3.13 mg/kg/injection, schedule: Q01DX009 (ip), vehicle: saline) 107 % of control; under setting [6], 110 % of control; under setting [7], 111 % of control.

Regarding `NNC(=O)Cc1ccccc1`, the T/C reads like this: under setting [8], 110 % of control; (dose: 50.0 mg/kg/injection, schedule: Q04DX003 (ip), vehicle: saline sonified) 105 % of control; (dose: 100.0 mg/kg/injection, schedule: Q04DX003 (ip), vehicle: saline sonified) 110 % of control.

For the compound `C=CCOP(=O)(OCC=C)OCC=C`, the T/C is 100 % of control under setting [1], 104 % of control under setting [2] and 104 % of control under setting [9].

Consider `Cc1ccc(C)c2c1CCC2C` (configuration not stated), for which the T/C is 123 % of control under setting [4] and 96 % of control under setting [5].

In the case of `CCO/C=C1\SC(=S)N(c2ccccc2OC)C1=O`, the T/C is 100 % of control under setting [1]; 112 % of control under setting [2]; 103 % of control (dose: 88.0 mg/kg/injection, schedule: Q01DX009 (ip), vehicle: Klucel (hydroxypropylcellulose) (HPC)); 122 % of control (dose: 88.0 mg/kg/injection, schedule: Q01DX009 (ip), vehicle: saline with Tween-80); 94 % of control under setting [9]; 103 % of control (dose: 132.0 mg/kg/injection, schedule: Q01DX009 (ip), vehicle: Klucel (hydroxypropylcellulose) (HPC)). Besides, the T/C runs as follows: under setting [10], 94 % of control and 123 % of control; (dose: 300.0 mg/kg/injection, schedule: Q01DX009 (ip), vehicle: Klucel (hydroxypropylcellulose) (HPC)) 112 % of control.

Consider `COc1ccc2nc3cc(Cl)ccc3c(NCCCNCCCCNCCCNc3c4ccc(Cl)cc4nc4ccc(OC)cc34)c2c1`, for which the T/C is 116 % of control (dose: 1.25 mg/kg/injection, schedule: Q01DX009 (ip), vehicle: saline with Tween-80) and 107 % of control (dose: 2.5 mg/kg/injection, schedule: Q01DX009 (ip), vehicle: saline with Tween-80).

For the compound `S`, the T/C was 100 % of control under setting [9]; 86 % of control under setting [3]; 110 % of control under setting [10]; 100 % of control (dose: 200.0 mg/kg/injection, schedule: Q04DX003 (ip), vehicle: Klucel (hydroxypropylcellulose) (HPC)); 100 % of control (dose: 400.0 mg/kg/injection, schedule: Q04DX003 (ip), vehicle: Klucel (hydroxypropylcellulose) (HPC)).

Take `CC(=O)Nc1ccc(NC(=O)c2ccc([As](O)O)cc2)cc1`: the T/C is 109 % of control (dose: 29.0 mg/kg/injection, schedule: Q04DX003 (ip), vehicle: Klucel (hydroxypropylcellulose) (HPC)); 102 % of control (dose: 45.0 mg/kg/injection, schedule: Q01DX009 (ip), vehicle: saline); 113 % of control (dose: 45.0 mg/kg/injection, schedule: Q04DX003 (ip), vehicle: Klucel (hydroxypropylcellulose) (HPC)); 116 % of control (dose: 65.0 mg/kg/injection, schedule: Q01DX009 (ip), vehicle: saline); 170 % of control under setting [10]; 159 % of control (dose: 265.0 mg/kg/injection, schedule: Q01DX009 (ip), vehicle: Klucel (hydroxypropylcellulose) (HPC)).

For the compound `COc1ccc(-c2oc3cc(OC4OC(C)C(O)C(O)C4O)c(O)c(O)c3c(=O)c2OC2OC(C)C(O)C(O)C2O)cc1` (configuration not stated), the T/C reads like this: (dose: 25.0 mg/kg/injection, schedule: Q01DX009 (ip), vehicle: saline + alcohol) 92 % of control; (dose: 50.0 mg/kg/injection, schedule: Q01DX009 (ip), vehicle: saline + alcohol) 92 % of control; (dose: 100.0 mg/kg/injection, schedule: Q01DX009 (ip), vehicle: saline + alcohol) 106 % of control.

Regarding `COc1cc(N(CCCl)CCCl)c(OC)cc1/C=N\Nc1nncn1N`, the T/C is, setting by setting: (dose: 2.2 mg/kg/injection, schedule: Q01DX009 (ip), vehicle: saline) 168 % of control; (dose: 3.3 mg/kg/injection, schedule: Q01DX009 (ip), vehicle: saline) 163 % of control; (dose: 5.0 mg/kg/injection, schedule: Q01DX009 (ip), vehicle: saline) 186 % of control; (dose: 5.0 mg/kg/injection, schedule: Q04DX003 (ip), vehicle: saline) 179 % of control; under setting [6], 172 % of control; (dose: 7.5 mg/kg/injection, schedule: Q01DX009 (ip), vehicle: saline) 240 % of control. Also, the T/C (dose: 10.0 mg/kg/injection, schedule: Q04DX003 (ip), vehicle: saline) is 212 % of control; the T/C under setting [7] is 90 % of control; the T/C (dose: 20.0 mg/kg/injection, schedule: Q04DX003 (ip), vehicle: saline) was 108 % of control; the T/C (dose: 25.0 mg/kg/injection, schedule: Q01DX009 (ip), vehicle: saline) was 86 % of control; the T/C under setting [8] was 177 % of control.

On to `Cc1c(NC(=O)Nc2ccccc2F)c(=O)n(-c2ccccc2)n1C`, for which the T/C was 100 % of control under setting [2], 90 % of control under setting [9] and 95 % of control under setting [10].

Consider `CC(=O)N(O)CCCC1NC(=O)C(CCCN(O)C(C)=O)NC1=O` (configuration not stated), for which the T/C by setting is: (dose: 100.0 mg/kg/injection, schedule: Q01DX001 (ip), vehicle: saline) 90 % of control; (dose: 200.0 mg/kg/injection, schedule: Q01DX001 (ip), vehicle: saline) 90 % of control; (dose: 400.0 mg/kg/injection, schedule: Q01DX001 (ip), vehicle: saline) 95 % of control.

Regarding `CC(C)(C)CC(C)(C)c1c(O)cc(O)cc1Cl`, the T/C reads like this: (dose: 12.5 mg/kg/injection, schedule: Q01DX009 (ip), vehicle: gum acacia) 99 % of control; (dose: 25.0 mg/kg/injection, schedule: Q01DX009 (ip), vehicle: gum acacia) 91 % of control; (dose: 50.0 mg/kg/injection, schedule: Q01DX009 (ip), vehicle: gum acacia) 89 % of control.

For the compound `OC12CCCCC1Cc1cc3c(cc1O2)CC1CCCCC1(O)O3` (configuration not stated), the T/C (dose: 50.0 mg/kg/injection, schedule: Q01DX009 (ip), vehicle: saline with Tween-80) is 100 % of control; the T/C under setting [4] is 93 % of control; the T/C under setting [5] was 96 % of control.

The values are drawn from PubChem BioAssay AID328 (DTP/NCI, 2004).
